Results reported in US20110212943A1, “NOVEL BRIDGED CYCLIC COMPOUNDS AS HISTONE DEACETYLASE INHIBITORS” (ORCHID RESEARCH LABORATORIES LIMITED, priority 2008, published 2011).

Columns and labels:
[1] = biological target: HDAC (Mouse Liver Extract); assay: Histone Deacetylase (HDAC) Inhibition Assay using Boc-Lys (Ac)-AMC Substrate; type: biochemical; details: Mouse liver enzyme, 30 minutes at 37° C.
Method: Histone Deacetylase (HDAC) Inhibition Assay using Boc-Lys (Ac)-AMC Substrate: Inhibition of HDAC has been implicated to modulate transcription and to induce apoptosis or differentiation in cancer cells. The fluorometric assay provides a fast and fluorescence based method that eliminates radioactivity, extractions or chromatography, as used in traditional assays. The assay is based on two steps. First, the HDAC fluorometric substrate, which comprises an acetylated lysine side chain, is incubated with a sample containing HDAC activity (Mouse Liver Extract). Deacetylation of the substrate sensitizes the substrate, in the second step; treatment with the Trypsin stop solution produces a fluorophore that can be easily analyzed using fluorescence plate reader.
Assay was done in 96-well black microplate and total volume of the assay was 100 μL. Mouse liver enzyme (10 mg/mL) was diluted 1:6 with HDAC buffer. Enzyme cocktail was made of 10 μL of diluted enzyme and 30 μL of HDAC buffer. 40 μL of enzyme cocktail followed by 10 μL of test compound (1 μM and 10 μM) or buffer (control) was added to each well. The plate was pre-incubated at 37° C. for 5 minutes. The HDAC reaction was started by adding 50 μL of HDAC substrate Boc-Lys (Ac)-AMC (Bachem AG, Switzerland). The plate was incubated at 37° C. for 30 minutes. The reaction was stopped by adding 100 μL of Trypsin stop solution and incubating at 37° C. for 15-30 minutes. Measuring the fluorescence at excitation wavelength of 360 nm and emission wavelength of 460 nm monitored the release of AMC. Buffer alone and substrate alone served as blank.

[2] = tested on: HCT 116 (colon), NCIH460 (lung) and U251 (glioma) cell lines; assay: Anti-cancer screen (MTT growth inhibition); type: cell-based; details: mean over HCT 116, NCIH460 and U251 cell lines, 48 hours of incubation
Method: Experimental drugs were screened for anti-cancer activity in three cell lines using five concentrations for each compound. The cell lines—HCT 116 (colon), NCIH460 (lung) and U251 (glioma) were maintained in DMEM containing 10% fetal bovine serum. 96-well microtiter plates are inoculated with cells in 100 μL of cell suspension (5×10^4 cells/mL) for 24 hours at 37° C., 5% CO2, 95% air and 100% relative humidity. A separate plate with these cell lines is also inoculated to determine cell viability before the addition of the compounds (T0)
Following 24-hour incubation, test compounds were added to the 96 well plates. Each plate contains one of the above cell lines and the following samples in triplicate: five different dilutions (0.01, 0.1, 1, 10 and 100 μM) of four test compounds, appropriate dilutions of a cytotoxic standard and growth medium (untreated) wells. Test compounds were dissolved in DMSO to prepare 20 mM stock solutions on the day of drug addition and serial dilutions were carried out in complete growth medium at 2× strength such that 100 μL added to wells gave final concentrations (0.01, 0.1, 1, 10 and 100 μM) in the well. SAHA was used as standard drug in these experiments.
For T0 measurement, 24 hours after seeding the cells, 20 μL of 3-(4,5-dimethyl-2-thiazolyl)-2,5-diphenyl-2H-tetrazolium (MIT) solution per well was added to the ‘T0’ plate and incubated for 3 hours at 37° C. in a CO2 incubator. The plate containing cells and test compounds was treated similarly after 48 hours of incubation. After 3 hours of MTT addition, well contents were aspirated carefully followed by addition of 150 μL DMSO per well. Plates were agitated to ensure dissolution of the formazan crystals in DMSO and absorbance was read at 570 nm (A570).
Percent growth (PG) is calculated relative to the control and zero measurement wells (T0) as follows:
(Mosmann T. Rapid colorimetric assay for cellular growth and survival: application to proliferation and cytotoxicity assays. (J. Immunol. Methods. 1983, 65 (1-2), 55-63; Anne Monks et al). Feasibility of high-flux anticancer drug screen using a diverse panel of cultured human tumor cell lines”. (JNCI, Vol. 83, No. 11, 1991, 757-766).

SMILES	IC50 [1] [µM]	GI50 [2] [µM]
O=C(/C=C/c1ccc(CNC23CC4CC(CC(C4)C2)C3)cc1)NO [Example 1, (2E)-3-{4-[(adamant-1-ylamino)methyl]phenyl}-N-hydroxyacrylamide]	0.07	1.8
O=C(/C=C/c1ccc(CNC23CC4CC(CC(O)(C4)C2)C3)cc1)NO [Example 2, (2E)-N-hydroxy-3-(4-{[(3-hydroxyadamant-1-yl)amino]methyl}phenyl)acrylamide]	0.25	5.1
COC12CC3CC(CC(NCc4ccc(/C=C/C(=O)NO)cc4)(C3)C1)C2 [Example 3, (2E)-N-hydroxy-3-(4-{[(3-methoxyadamant-1-yl)amino]methyl}phenyl)acrylamide]	0.26	5.2
CCOC12CC3CC(CC(NCc4ccc(/C=C/C(=O)NO)cc4)(C3)C1)C2 [Example 4, (2E)-N-hydroxy-3-(4-{[(3-ethoxyadamant-1-yl)amino]methyl}phenyl)acrylamide]	0.46	3.3
CC12CC3CC(C)(C1)CC(NCc1ccc(/C=C/C(=O)NO)cc1)(C3)C2 [Example 5, (2E)-3-(4-{[(3,5-dimethyladamant-1-yl)amino]methyl}phenyl)-N-hydroxyacrylamide]	0.03	1.1
O=C(/C=C/c1ccc(CN2CC3CC4CC(C3)CC2C4)cc1)NO [Example 6, (2E)-3-[4-(4-azatricyclo[4.3.1.1^3,8]undec-4-ylmethyl)phenyl]-N-hydroxyacrylamide]	0.11	2.8
O=C(/C=C/c1ccc(CNC23CC4CC(CC(Cl)(C4)C2)C3)cc1)NO [Example 7, (2E)-3-(4-{[(3-chloroadamant-1-yl)amino]methyl}phenyl)-N-hydroxyacrylamide]	0.04	9.7
O=C(/C=C/c1ccc(CNC23CC4CC(C2)CC(c2ccccc2)(C4)C3)cc1)NO [Example 8, (2E)-3-(4-{[(3-phenyladamant-1-yl)amino]methyl}phenyl)-N-hydroxyacrylamide]	0.44	3.5
O=C(/C=C/c1ccc(CNC23CC4CC(CC(CO)(C4)C2)C3)cc1)NO [Example 9, (2E)-3-(4-{[(3-hydroxymethyladamant-1-yl)amino]methyl}phenyl)-N-hydroxy acrylamide]	0.24	6.1
O=C(/C=C/c1ccc(CNCC23CC4CC(CC(O)(C4)C2)C3)cc1)NO [Example 11, (2E)-N-hydroxy-3-[4-({[(3-hydroxyadamant-1-yl)methyl]amino}methyl)phenyl]acrylamide]	0.00906	0.1
Nc1ccccc1NC(=O)/C=C/c1ccc(CNC23CC4CC(CC(C4)C2)C3)cc1 [Example 12, (2E)-N-(2-aminophenyl)-3-{4-[(adamant-1-ylamino)methyl]phenyl}acrylamide]	4.3	7
Nc1ccccc1NC(=O)/C=C/c1ccc(CNC23CC4CC(CC(O)(C4)C2)C3)cc1 [Example 13, (2E)-N-(2-aminophenyl)-3-{4-[(3-hydroxyadamant-1-ylamino)methyl]phenyl}acrylamide]	5.4	52
O=C(/C=C/c1ccc(CNC2C3CC4CC(C3)CC2C4)cc1)NO (stereo not shown) [Example 15, (2E)-3-{4-[(adamant-2-ylamino)methyl]phenyl}-N-hydroxyacrylamide]	0.06	0.15
O=C(/C=C/c1ccc(CNC2C3CC4CC2CC(O)(C4)C3)cc1)NO (stereo not shown) [Example 16, (2E)-N-hydroxy-3-(4-{[(5-hydroxyadamant-2-yl)amino]methyl}phenyl)acrylamide]	0.16	0.4
O=C(C=Cc1ccc(CNCCC2C3CC4CC(C3)CC2C4)cc1)NO (stereo not shown) [Example 17, (2E)-N-hydroxy-3-[4-({[adamant-2-yl)ethyl]amino}methyl)phenyl]acrylamide]	0.00028	0.29
O=C(/C=C/c1ccc(CNCCC2C3CC4CC2CC(O)(C4)C3)cc1)NO (stereo not shown) [Example 19, (2E)-N-hydroxy-3-[4-({[(5-hydroxyadamant-2-yl)ethyl]amino}methyl)phenyl]acrylamide]	0.028	0.22
O=C(/C=C/c1ccc(CNC(=O)CC2C3CC4CC(C3)CC2C4)cc1)NO (stereo not shown) [Example 20, (2E)-N-hydroxy-3-(4-{[(adamantyl-2-ylacetyl)amino]methyl}phenyl)acrylamide]	0.008	1.2
O=C(C=C1C2CC3CC(C2)CC1C3)NCc1ccc(/C=C/C(=O)NO)cc1 [Example 21, (2E)-N-hydroxy-3-(4-{[(tricyclo[3.3.1.1^3,7]dec-2-ylideneacetyl)amino]methyl}phenyl)acrylamide]	0.043	2.1
O=C(/C=C/c1ccc(CNC(=O)CC23CC4CC(CC(C4)C2)C3)cc1)NO [Example 23, (2E)-3-(4-{[(adamant-1-ylacetyl)amino]methyl}phenyl)-N-hydroxyacrylamide]	0.0018	0.18
O=C(/C=C/c1ccc(CNC(=O)CC2C3CC4CC2CC(O)(C4)C3)cc1)NO (stereo not shown) [Example 24, (2E)-N-hydroxy-3-[4-({[(5-hydroxyadamant-2-yl)acetyl]amino}methyl)phenyl]acrylamide]	0.11	4.2
O=C(/C=C/c1ccc(CNC(=O)C23CC4CC(CC(C4)C2)C3)cc1)NO [Example 25, N-{4-[(1E)-3-(hydroxyamino)-3-oxoprop-1-en-1-yl]benzyl}adamantane-1-carboxamide]	0.067	0.1
O=C(/C=C/c1ccc(CNCC(=O)NC23CC4CC(CC(C4)C2)C3)cc1)NO [Example 28, (2E)-3-[4-({[2-(adamant-1-ylamino)-2-oxoethyl]amino}methyl)phenyl]-N-hydroxyacrylamide]	0.08	4.4
O=C(C=Cc1ccc(CNCCNC(=O)C23CC4CC(CC(C4)C2)C3)cc1)NO [Example 29, N-[2-({4-[(1E)-3-(hydroxyamino)-3-oxoprop-1-en-1-yl]benzyl}amino)ethyl]adamantine-1-carboxamide]	0.0104	0.2
O=C(/C=C/c1ccc(CNCC23CC4CC(CC2C4)C3)cc1)NO [Example 32, (2E)-N-hydroxy-3-(4-{[(tricyclo[3.3.1.0^3,7]non-3-ylmethyl)amino]methyl}phenyl)acrylamide]	0.000385	0.01
O=C(CCCCCCC(=O)Nc1ccccc1)NO [SAHA, suberoylanilide hydroxamic acid, reference compound]		1.26
